Test results reported in article PMC12090182, “Repurposing of the RIPK1-Selective Benzo[1,4]oxazepin-4-one Scaffold for the Development of a Type III LIMK1/2 Inhibitor” (ACS Chemical Biology, 2025).

How the values were obtained:
Format in all cases: binding
CAMK1 = CAMK1 (Homo sapiens, UniProt Q14012); assay: scanMAX KINOMEscan (Eurofins); conditions: read-out: Percent Control
From the text: (§1) Supplement cb5c00097_si_002.xlsx, sheet "Table S6 (Eurofins Selectivity)" | column: Percent Control

STK33 = STK33 (Homo sapiens, UniProt Q9BYT3); assay: scanMAX KINOMEscan (Eurofins); conditions: compound concentration 100 nM; Entrez STK33; read-out: Percent Control
From the text: as §1

PRP4 = PRP4 (Homo sapiens, UniProt Q13523); assay: scanMAX KINOMEscan (Eurofins); conditions: compound concentration 100 nM; Entrez PRPF4B; read-out: Percent Control
From the text: as §1

SgK110 = SgK110 (Homo sapiens, UniProt P0C264); assay: scanMAX KINOMEscan (Eurofins); conditions: compound concentration 100 nM; Entrez SgK110; read-out: Percent Control
From the text: as §1

PRKCH = PRKCH (Homo sapiens, UniProt P24723); assay: scanMAX KINOMEscan (Eurofins); conditions: compound concentration 100 nM; Entrez PRKCH; read-out: Percent Control
From the text: as §1

[1] = molecular target: RSK2(Kin.Dom.1-N-terminal) (Homo sapiens, UniProt P51812); assay: scanMAX KINOMEscan (Eurofins); conditions: compound concentration 100 nM; Entrez RPS6KA3; read-out: Percent Control
From the text: as §1

MAP4K5 = MAP4K5 (Homo sapiens, UniProt Q9Y4K4); assay: scanMAX KINOMEscan (Eurofins); conditions: 1000 nM, read-out: Percent Control
From the text: as §1

ACVRL1 = ACVRL1 (Homo sapiens, UniProt P37023); assay: scanMAX KINOMEscan (Eurofins); conditions: 1000 nM, read-out: Percent Control
From the text: as §1

IRAK1 = IRAK1 (Homo sapiens, UniProt P51617); assay: scanMAX KINOMEscan (Eurofins); conditions: read-out: Percent Control
From the text: as §1

MST2 = MST2 (Homo sapiens, UniProt Q13188); assay: scanMAX KINOMEscan (Eurofins); conditions: 1000 nM, read-out: Percent Control
From the text: as §1

PKN1 = PKN1 (Homo sapiens, UniProt Q16512); assay: scanMAX KINOMEscan (Eurofins); conditions: read-out: Percent Control
From the text: as §1

CAMK1DA = CAMK1DA (Homo sapiens, UniProt Q8IU85); assay: DSF selectivity screening; conditions: 10 μM compound
How it was run: (§2)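 Recombinant kinase domains (2 μM) were mixed with compound at 10 μM in 20 mM HEPES pH 7.5, 500 mM NaCl with SYPRO Orange dye. Unfolding was followed by fluorescence (ex 465/em 590 nm) while heating at 3 °C per minute; melting temperature taken as the Boltzmann-fit inflection point.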

BMXA = BMXA (Homo sapiens, UniProt P51813); assay: DSF selectivity screening; conditions: 10 μM compound
How it was run: as §2

CSNK2A1A = CSNK2A1A (Homo sapiens, UniProt P68400); assay: DSF selectivity screening; conditions: 10 μM compound
How it was run: as §2

TOPKA = TOPKA (Homo sapiens, UniProt Q96KB5); assay: DSF selectivity screening; conditions: 10 μM compound
How it was run: as §2

EPHA2A = EPHA2A (Homo sapiens, UniProt P29317); assay: DSF selectivity screening; conditions: 10 μM compound
How it was run: as §2

CAMK2BA = CAMK2BA (Homo sapiens, UniProt Q13554); assay: DSF selectivity screening; conditions: 10 μM compound
How it was run: as §2

PAK1A = PAK1A (Homo sapiens, UniProt Q13153); assay: DSF selectivity screening; conditions: 10 μM compound
How it was run: as §2

MAPK1A = MAPK1A (Homo sapiens, UniProt P28482); assay: DSF selectivity screening; conditions: 10 μM compound
How it was run: as §2

PCTK1A = PCTK1A (Homo sapiens, UniProt Q00536); assay: DSF selectivity screening; conditions: 10 μM compound
How it was run: as §2

RPS6KA5A = assay: DSF selectivity screening; conditions: 10 μM compound
How it was run: as §2

AAK1A = AAK1A (Homo sapiens, UniProt Q2M2I8); assay: DSF selectivity screening; conditions: 10 μM compound
How it was run: as §2

PAK4A = PAK4A (Homo sapiens, UniProt O96013); assay: DSF selectivity screening; conditions: 10 μM compound
How it was run: as §2

EPHB3A = EPHB3A (Homo sapiens, UniProt P54753); assay: DSF selectivity screening; conditions: 10 μM compound
How it was run: as §2

NEK1A = NEK1A (Homo sapiens, UniProt Q96PY6); assay: DSF selectivity screening; conditions: 10 μM compound
How it was run: as §2

NEK7A = NEK7A (Homo sapiens, UniProt Q8TDX7); assay: DSF selectivity screening; conditions: 10 μM compound
How it was run: as §2

NEK2 = NEK2 (Homo sapiens, UniProt P51955); assay: DSF selectivity screening; conditions: 10 μM compound
How it was run: as §2

STK10A = STK10A (Homo sapiens, UniProt O94804); assay: DSF selectivity screening; conditions: 10 μM compound
How it was run: as §2

MAPK13A = MAPK13A (Homo sapiens, UniProt O15264); assay: DSF selectivity screening; conditions: 10 μM compound
How it was run: as §2

ABL1A = ABL1A (Homo sapiens, UniProt P00519); assay: DSF selectivity screening; conditions: 10 μM compound
How it was run: as §2

DCAMKL1A = DCAMKL1A (Homo sapiens, UniProt O15075); assay: DSF selectivity screening; conditions: 10 μM compound
How it was run: as §2

CAMK2DA = CAMK2DA (Homo sapiens, UniProt Q13557); assay: DSF selectivity screening; conditions: 10 μM compound
How it was run: as §2

DMPKA = DMPKA (Homo sapiens, UniProt Q09013); assay: DSF selectivity screening; conditions: 10 μM compound
How it was run: as §2

MARK3A = MARK3A (Homo sapiens, UniProt P27448); assay: DSF selectivity screening; conditions: 10 μM compound
How it was run: as §2

RPS6KA1A = assay: DSF selectivity screening; conditions: 10 μM compound
How it was run: as §2

[2] = molecular target: ABL1(F317L)-nonphosphorylated (Homo sapiens, UniProt P00519, F317L); assay: biochemical; conditions: read-out: Percent Control

CAMK1, sequence (Q14012 whole entry): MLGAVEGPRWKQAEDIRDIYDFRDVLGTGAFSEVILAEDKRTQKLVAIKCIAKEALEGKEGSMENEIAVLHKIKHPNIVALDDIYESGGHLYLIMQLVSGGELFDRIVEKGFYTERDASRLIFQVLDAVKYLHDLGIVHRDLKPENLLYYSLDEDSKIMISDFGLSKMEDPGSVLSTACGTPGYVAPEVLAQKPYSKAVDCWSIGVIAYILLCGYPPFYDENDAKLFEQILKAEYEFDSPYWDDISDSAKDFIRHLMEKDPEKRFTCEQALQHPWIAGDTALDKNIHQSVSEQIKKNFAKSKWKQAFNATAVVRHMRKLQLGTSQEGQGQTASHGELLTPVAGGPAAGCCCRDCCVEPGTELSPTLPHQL
PKN1, sequence (Q16512 whole entry): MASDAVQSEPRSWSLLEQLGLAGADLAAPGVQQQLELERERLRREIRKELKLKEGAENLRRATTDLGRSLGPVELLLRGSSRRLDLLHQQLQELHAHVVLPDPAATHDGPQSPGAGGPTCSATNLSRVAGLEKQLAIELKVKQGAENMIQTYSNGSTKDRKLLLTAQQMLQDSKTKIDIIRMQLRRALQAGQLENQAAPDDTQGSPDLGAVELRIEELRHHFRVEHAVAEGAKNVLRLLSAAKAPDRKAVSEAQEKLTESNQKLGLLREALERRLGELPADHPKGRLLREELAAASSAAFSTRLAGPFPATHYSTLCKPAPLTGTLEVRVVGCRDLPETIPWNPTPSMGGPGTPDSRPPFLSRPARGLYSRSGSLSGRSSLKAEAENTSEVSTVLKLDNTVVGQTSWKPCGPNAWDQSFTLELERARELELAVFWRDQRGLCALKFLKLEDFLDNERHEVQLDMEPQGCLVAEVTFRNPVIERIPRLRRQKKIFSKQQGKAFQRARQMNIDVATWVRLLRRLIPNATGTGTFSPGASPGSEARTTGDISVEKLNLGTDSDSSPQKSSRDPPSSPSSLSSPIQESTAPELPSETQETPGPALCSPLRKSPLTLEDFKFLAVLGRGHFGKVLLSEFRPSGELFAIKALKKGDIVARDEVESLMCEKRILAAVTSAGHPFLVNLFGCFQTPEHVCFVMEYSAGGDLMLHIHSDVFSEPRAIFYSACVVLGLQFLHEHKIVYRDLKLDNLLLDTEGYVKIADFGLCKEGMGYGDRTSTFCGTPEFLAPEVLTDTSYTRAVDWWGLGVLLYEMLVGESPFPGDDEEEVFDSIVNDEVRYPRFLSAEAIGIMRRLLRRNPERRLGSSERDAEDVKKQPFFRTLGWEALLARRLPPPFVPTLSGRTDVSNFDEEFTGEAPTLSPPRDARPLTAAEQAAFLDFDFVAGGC
IRAK1, sequence (P51617 whole entry): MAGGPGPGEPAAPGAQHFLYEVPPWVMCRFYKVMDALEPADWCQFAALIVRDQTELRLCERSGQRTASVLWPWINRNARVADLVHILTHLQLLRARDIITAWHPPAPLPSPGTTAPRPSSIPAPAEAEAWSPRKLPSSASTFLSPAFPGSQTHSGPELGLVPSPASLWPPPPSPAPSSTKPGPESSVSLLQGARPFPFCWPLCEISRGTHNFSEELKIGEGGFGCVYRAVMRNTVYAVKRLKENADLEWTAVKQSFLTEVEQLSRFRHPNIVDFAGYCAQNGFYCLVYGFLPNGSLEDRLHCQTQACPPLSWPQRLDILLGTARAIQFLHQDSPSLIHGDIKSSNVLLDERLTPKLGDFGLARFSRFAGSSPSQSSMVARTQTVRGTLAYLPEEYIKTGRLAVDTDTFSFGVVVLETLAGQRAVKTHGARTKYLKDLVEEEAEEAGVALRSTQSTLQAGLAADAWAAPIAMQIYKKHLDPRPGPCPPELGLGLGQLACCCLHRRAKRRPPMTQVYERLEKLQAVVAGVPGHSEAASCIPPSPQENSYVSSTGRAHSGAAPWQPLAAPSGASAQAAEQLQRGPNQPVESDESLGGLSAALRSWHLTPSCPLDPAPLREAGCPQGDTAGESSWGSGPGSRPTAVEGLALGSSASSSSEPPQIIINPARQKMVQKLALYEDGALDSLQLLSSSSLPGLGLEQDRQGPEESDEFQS
CAMK1DA, sequence (Q8IU85 whole entry, the tested form may be a part): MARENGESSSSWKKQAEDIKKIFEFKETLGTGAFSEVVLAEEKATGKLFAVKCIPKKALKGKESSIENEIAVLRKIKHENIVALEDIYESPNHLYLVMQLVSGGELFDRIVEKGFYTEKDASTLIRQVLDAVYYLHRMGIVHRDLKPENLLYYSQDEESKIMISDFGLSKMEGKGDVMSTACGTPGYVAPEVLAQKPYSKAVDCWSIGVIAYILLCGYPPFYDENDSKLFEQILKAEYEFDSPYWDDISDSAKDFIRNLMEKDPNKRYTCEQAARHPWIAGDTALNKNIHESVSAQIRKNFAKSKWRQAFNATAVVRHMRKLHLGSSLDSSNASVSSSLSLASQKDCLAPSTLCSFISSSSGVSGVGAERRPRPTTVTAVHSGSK
STK33, sequence (Q9BYT3 whole entry): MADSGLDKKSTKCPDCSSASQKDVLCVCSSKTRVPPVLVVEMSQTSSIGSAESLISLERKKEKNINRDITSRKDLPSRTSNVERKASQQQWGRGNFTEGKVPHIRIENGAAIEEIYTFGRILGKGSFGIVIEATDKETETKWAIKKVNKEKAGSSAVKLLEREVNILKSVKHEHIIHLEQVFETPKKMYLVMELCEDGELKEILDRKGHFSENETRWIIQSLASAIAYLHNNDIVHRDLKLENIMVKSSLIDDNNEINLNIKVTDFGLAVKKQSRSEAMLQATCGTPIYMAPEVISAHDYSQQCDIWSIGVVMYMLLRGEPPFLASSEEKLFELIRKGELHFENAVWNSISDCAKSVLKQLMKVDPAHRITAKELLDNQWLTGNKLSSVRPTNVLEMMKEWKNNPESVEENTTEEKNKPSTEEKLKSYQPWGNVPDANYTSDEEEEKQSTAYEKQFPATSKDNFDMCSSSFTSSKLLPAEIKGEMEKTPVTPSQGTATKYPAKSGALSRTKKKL
MARK3A, sequence (P27448 48-370): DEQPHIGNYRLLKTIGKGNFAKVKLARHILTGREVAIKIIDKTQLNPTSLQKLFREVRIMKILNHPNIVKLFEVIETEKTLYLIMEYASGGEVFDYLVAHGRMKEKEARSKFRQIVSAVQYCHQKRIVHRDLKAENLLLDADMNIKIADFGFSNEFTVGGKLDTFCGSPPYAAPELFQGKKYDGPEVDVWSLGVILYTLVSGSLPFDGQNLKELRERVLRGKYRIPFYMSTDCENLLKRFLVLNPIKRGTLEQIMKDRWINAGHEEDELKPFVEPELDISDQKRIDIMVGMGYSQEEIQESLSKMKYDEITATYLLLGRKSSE
ABL1A, sequence (P00519 229-500): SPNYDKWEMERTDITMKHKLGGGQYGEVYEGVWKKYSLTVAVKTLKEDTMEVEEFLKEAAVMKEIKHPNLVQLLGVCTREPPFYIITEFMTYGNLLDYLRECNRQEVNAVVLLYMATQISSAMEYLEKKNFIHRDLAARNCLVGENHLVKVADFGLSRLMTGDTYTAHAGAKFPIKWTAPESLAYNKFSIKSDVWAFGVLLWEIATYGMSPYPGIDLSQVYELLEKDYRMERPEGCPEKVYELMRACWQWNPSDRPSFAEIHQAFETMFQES
DMPKA, sequence (Q09013 whole entry): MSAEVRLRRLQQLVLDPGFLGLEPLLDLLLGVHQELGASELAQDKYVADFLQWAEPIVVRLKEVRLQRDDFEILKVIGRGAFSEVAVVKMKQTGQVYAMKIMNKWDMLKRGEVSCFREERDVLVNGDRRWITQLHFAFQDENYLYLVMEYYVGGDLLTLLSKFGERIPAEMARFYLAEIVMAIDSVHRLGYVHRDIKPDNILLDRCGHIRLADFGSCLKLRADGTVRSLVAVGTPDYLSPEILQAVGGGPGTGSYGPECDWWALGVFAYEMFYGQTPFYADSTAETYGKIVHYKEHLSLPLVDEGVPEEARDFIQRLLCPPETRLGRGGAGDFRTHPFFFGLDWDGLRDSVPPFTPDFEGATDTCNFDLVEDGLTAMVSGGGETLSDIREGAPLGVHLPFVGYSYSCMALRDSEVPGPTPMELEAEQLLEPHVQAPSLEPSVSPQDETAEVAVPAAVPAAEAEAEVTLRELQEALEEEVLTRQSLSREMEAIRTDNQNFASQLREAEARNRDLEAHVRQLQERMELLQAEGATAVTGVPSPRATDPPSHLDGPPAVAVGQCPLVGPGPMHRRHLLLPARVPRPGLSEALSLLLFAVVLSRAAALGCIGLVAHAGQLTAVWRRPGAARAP
MST2, sequence (Q13188 whole entry): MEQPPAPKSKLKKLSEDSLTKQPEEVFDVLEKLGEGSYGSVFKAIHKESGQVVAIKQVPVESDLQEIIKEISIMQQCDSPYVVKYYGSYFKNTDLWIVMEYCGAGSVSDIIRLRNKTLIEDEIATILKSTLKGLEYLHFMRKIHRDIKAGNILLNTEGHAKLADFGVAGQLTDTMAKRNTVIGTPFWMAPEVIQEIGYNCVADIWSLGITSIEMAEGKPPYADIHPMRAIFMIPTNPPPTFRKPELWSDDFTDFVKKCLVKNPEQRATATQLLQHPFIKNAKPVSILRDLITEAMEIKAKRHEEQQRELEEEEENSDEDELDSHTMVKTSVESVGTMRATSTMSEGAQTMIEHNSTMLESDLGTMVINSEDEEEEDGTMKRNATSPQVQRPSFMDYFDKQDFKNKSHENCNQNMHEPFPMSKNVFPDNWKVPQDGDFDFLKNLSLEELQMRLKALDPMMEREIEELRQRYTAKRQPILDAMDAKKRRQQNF
CAMK2DA, sequence (Q13557 11-309): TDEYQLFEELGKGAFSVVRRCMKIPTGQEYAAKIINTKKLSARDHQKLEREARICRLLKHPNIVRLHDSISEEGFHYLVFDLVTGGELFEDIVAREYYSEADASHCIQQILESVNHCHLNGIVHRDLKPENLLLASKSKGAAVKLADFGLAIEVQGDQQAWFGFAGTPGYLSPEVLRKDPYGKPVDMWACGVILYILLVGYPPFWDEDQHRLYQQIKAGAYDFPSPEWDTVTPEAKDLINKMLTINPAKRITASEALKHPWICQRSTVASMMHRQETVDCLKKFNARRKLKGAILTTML

## CN1C(=O)[C@@H](N2CCc3c(nn(Cc4ccccc4)c3C(N)=O)C2=O)COc2cc(Cl)ccc21 [Compound 10, (S)-2-benzyl-6-(8-chloro-5-methyl-4-oxo-2,3,4,5-tetrahydrobenzo[b][1,4]oxazepin-3-yl)-7-oxo-4,5,6,7-tetrahydro-2H-pyrazolo[3,4-c]pyridine-3-carboxamide]
CAMK1; 1000 nM
  remaining binding at 1 µM: 100%
CAMK1; compound concentration 100 nM, Entrez CAMK1
  remaining binding at 0.1 µM: 90%
STK33
  remaining binding at 0.1 µM: 80%
PRP4
  remaining binding at 0.1 µM: 67%
SgK110
  remaining binding at 0.1 µM: 93%
PRKCH
  remaining binding at 0.1 µM: 92%
[1]
  remaining binding at 0.1 µM: 100%
MAP4K5
  remaining binding at 1 µM: 88%
ACVRL1
  remaining binding at 1 µM: 91%
IRAK1; 1000 nM
  remaining binding at 1 µM: 100%
IRAK1; compound concentration 100 nM, Entrez IRAK1
  remaining binding at 0.1 µM: 100%
MST2
  remaining binding at 1 µM: 80%
PKN1; 1000 nM
  remaining binding at 1 µM: 98%
PKN1; compound concentration 100 nM, Entrez PKN1
  remaining binding at 0.1 µM: 86%
CAMK1DA
  ΔTm at 10 µM: -0.2 °C
BMXA
  ΔTm at 10 µM: 0.1 °C
CSNK2A1A
  ΔTm at 10 µM: -0.1 °C
TOPKA
  ΔTm at 10 µM: -0.1 °C
EPHA2A
  ΔTm at 10 µM: 0 °C
CAMK2BA
  ΔTm at 10 µM: 0.1 °C
PAK1A
  ΔTm at 10 µM: 0.2 °C
MAPK1A
  ΔTm at 10 µM: 0.1 °C
PCTK1A
  ΔTm at 10 µM: 0.2 °C
RPS6KA5A
  ΔTM: -0.1 K
AAK1A
  ΔTm at 10 µM: 0.1 °C
PAK4A
  ΔTm at 10 µM: 0.1 °C
EPHB3A
  ΔTm at 10 µM: 0.2 °C
NEK1A
  ΔTm at 10 µM: 0.1 °C
NEK7A
  ΔTm at 10 µM: 0 °C
NEK2
  ΔTm at 10 µM: 1.3 °C
STK10A
  ΔTm at 10 µM: 0.4 °C
MAPK13A
  ΔTm at 10 µM: -0.1 °C
ABL1A
  ΔTm at 10 µM: -0.1 °C
DCAMKL1A
  ΔTm at 10 µM: 0 °C
CAMK2DA
  ΔTm at 10 µM: 0.4 °C
DMPKA
  ΔTm at 10 µM: 0.1 °C
MARK3A
  ΔTm at 10 µM: 0.3 °C
RPS6KA1A
  ΔTM: 0 K
[2]
  remaining activity at 1 µM: 86%
